In ChEMBL document CHEMBL1201862, “PubChem BioAssay data set” (2004):
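All cell lines were grown in 96-well plates and treated with compound for 48 hours. GI50 is the concentration that inhibits growth by half.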 Calls of active or inactive are those of the source. Cut-off read from the data, not from the text of the source: active = GI50 up to about 1.1 µM and inactive = higher.

Experiments:
Assay in all cases: NCI-60 cell line screen, 48 h
[1] = tested on: SK-MEL-28
[2] = tested on: SN12C
[3] = tested on: HCT-15
[4] = tested on: U-251
[5] = tested on: DU-145
[6] = tested on: SW-620
[7] = tested on: UACC-62
[8] = tested on: HT-29
[9] = tested on: NCI-H522
[10] = tested on: NCI-H23
[11] = tested on: Malme-3M
[12] = tested on: A549
[13] = tested on: UACC-257
[14] = tested on: MOLT-4
[15] = tested on: MDA-MB-435
[16] = tested on: CCRF-CEM
[17] = tested on: IGROV-1
[18] = tested on: KM-20L2

Row | SMILES | GI50 [1] | GI50 [2] | GI50 [3] | GI50 [4] | GI50 [5] | GI50 [6] | GI50 [7] | GI50 [8] | GI50 [9] | GI50 [10] | GI50 [11] | GI50 [12] | GI50 [13] | GI50 [14] | GI50 [15] | GI50 [16] | GI50 [17] | GI50 [18]
1 | Cc1ncc(CO)c(CN)c1O | > 100 µM (inactive) | > 100 µM (inactive) | > 100 µM | > 100 µM (inactive) | > 100 µM (inactive) | > 100 µM (inactive) | > 100 µM (inactive) | > 100 µM (inactive) | > 100 µM (inactive) | > 100 µM (inactive) | > 100 µM (inactive) | > 100 µM (inactive) | > 100 µM (inactive) | > 100 µM (inactive) | > 100 µM (inactive) | > 100 µM (inactive) | > 100 µM (inactive) | 
2 | O=c1[nH]nc(Cc2ccc(Cl)cc2)n1O | > 100 µM (inactive) | > 100 µM (inactive) | > 100 µM | > 100 µM (inactive) | > 100 µM (inactive) | > 100 µM (inactive) | > 100 µM (inactive) | > 100 µM (inactive) | > 100 µM (inactive) | > 100 µM (inactive) | > 100 µM (inactive) | > 100 µM (inactive) | > 100 µM (inactive) | > 100 µM (inactive) | > 100 µM (inactive) | > 100 µM (inactive) | > 100 µM (inactive) | 
3 | Cc1ccc2c(c1)CC1(Cc3cccc(C)c3C1=O)C2=O (stereo not given) | > 100 µM (inactive) | > 100 µM (inactive) | > 100 µM | > 100 µM (inactive) | > 100 µM (inactive) | > 100 µM (inactive) | 48.4 µM (inactive) | 51.3 µM (inactive) | 82.6 µM (inactive) | > 100 µM (inactive) | 85.5 µM (inactive) | > 100 µM (inactive) | > 100 µM (inactive) | 42.6 µM (inactive) | > 10 µM (inactive) | 70.1 µM (inactive) | > 100 µM (inactive) | 
4 | Cn1/c(=N\S(=O)(=O)c2ccccc2)[nH]c2ccccc21 | > 100 µM (inactive) | > 100 µM (inactive) | > 100 µM | > 100 µM (inactive) | > 100 µM (inactive) | > 100 µM (inactive) | > 100 µM (inactive) | > 100 µM (inactive) | > 100 µM (inactive) | > 100 µM (inactive) | > 100 µM (inactive) | > 100 µM (inactive) | > 100 µM (inactive) | > 100 µM (inactive) | > 100 µM (inactive) | > 100 µM (inactive) | > 100 µM (inactive) | 
5 | Cc1ccc(S[C@@H](C)[C@@](O)(C(N)=O)c2ccccc2)cc1 | > 100 µM (inactive) | > 100 µM (inactive) | 84.3 µM | 70.3 µM (inactive) | 72.9 µM (inactive) | 39 µM (inactive) | 40.3 µM (inactive) | 41.3 µM (inactive) | 16.7 µM (inactive) | 29.8 µM (inactive) | 21 µM (inactive) | 42.1 µM (inactive) | 13 µM (inactive) | 12.4 µM (inactive) | 45.6 µM (inactive) | 7.67 µM (inactive) | 3.74 µM (inactive) | 
6 | CC(C#N)(NO)C(C)(C#N)NO (stereo not given) | > 100 µM (inactive) | > 100 µM (inactive) | > 100 µM | > 100 µM (inactive) | > 100 µM (inactive) | > 100 µM (inactive) | > 100 µM (inactive) | > 100 µM (inactive) | > 100 µM (inactive) | > 100 µM (inactive) | > 100 µM (inactive) | > 100 µM (inactive) | > 100 µM (inactive) | > 100 µM (inactive) | > 100 µM (inactive) | > 100 µM (inactive) | > 100 µM (inactive) | 
7 | CC(C)C(NCc1c2ccccc2nc2ccccc12)C(=O)O (stereo not given) | 87.5 µM (inactive) | 50 µM (inactive) | 35.7 µM | 91.8 µM (inactive) |  | 39.9 µM (inactive) |  | 30.7 µM (inactive) | 22 µM (inactive) | 41.8 µM (inactive) | 55.3 µM (inactive) | 74.6 µM (inactive) | 54.5 µM (inactive) | 15.2 µM (inactive) |  | 23.8 µM (inactive) | 27.4 µM (inactive) | 58.2 µM (inactive)
8 | Cc1sc(C)c2c1C(=O)CC2N (stereo not given) | > 42.7 µM (inactive) | 24.2 µM (inactive) | 31.3 µM | 76.4 µM (inactive) | 15.9 µM (inactive) | 6 µM (inactive) | 75.3 µM (inactive) | 24.9 µM (inactive) | 3.3 µM (inactive) | 32.1 µM (inactive) | 13.7 µM (inactive) | 29.3 µM (inactive) | 17.5 µM (inactive) | 1.58 µM (inactive) | 20.8 µM (inactive) | 1.04 µM (active) | 34.7 µM (inactive) | 
9 | COC(=O)c1ccccc1CC1Cc2ccc3c(c2C1)CCC3 (stereo not given) | 46 µM (inactive) | 39.6 µM (inactive) | 20.4 µM | 28.6 µM (inactive) | 45.1 µM (inactive) | 39.4 µM (inactive) | 38.5 µM (inactive) | 20 µM (inactive) | 17.7 µM (inactive) | 38.1 µM (inactive) | 19.4 µM (inactive) | 30.3 µM (inactive) | 10.4 µM (inactive) | 21.6 µM (inactive) | 22.9 µM (inactive) | 17.9 µM (inactive) | 35.4 µM (inactive) | 
10 | Cc1ccc(S(=O)(=O)Nn2c(C)cc3ccc(S(=O)(=O)Nc4ccccc4[N+](=O)[O-])cc3c2=O)cc1 | > 100 µM (inactive) | 82.4 µM (inactive) | > 100 µM | > 100 µM (inactive) | > 100 µM (inactive) | > 100 µM (inactive) | 38.9 µM (inactive) | > 100 µM (inactive) | > 100 µM (inactive) | > 100 µM (inactive) | > 100 µM (inactive) | 72.8 µM (inactive) | > 100 µM (inactive) | > 100 µM (inactive) | > 100 µM (inactive) | > 100 µM (inactive) | 43 µM (inactive) | 
11 | CCOP(=O)(OCC)C(Nc1cccc(F)c1)c1ccc(N(C)C)cc1 (stereo not given) | > 100 µM (inactive) | > 100 µM (inactive) | 78.2 µM | > 100 µM (inactive) | > 100 µM (inactive) | > 100 µM (inactive) | 50.4 µM (inactive) | 59.2 µM (inactive) | 75.5 µM (inactive) | > 100 µM (inactive) | > 100 µM (inactive) | 52.7 µM (inactive) | 76.9 µM (inactive) | 40.4 µM (inactive) | > 100 µM (inactive) | 90.4 µM (inactive) | > 100 µM (inactive) | 
12 | CCCC(CC)c1cc(O)c(O)cc1C(CC)CCC (stereo not given) | > 10 µM (inactive) | > 10 µM (inactive) | > 10 µM | > 10 µM (inactive) | > 10 µM (inactive) | > 10 µM (inactive) | > 10 µM (inactive) | > 10 µM (inactive) | > 10 µM (inactive) | > 10 µM (inactive) | > 10 µM (inactive) | > 10 µM (inactive) | > 10 µM (inactive) | > 10 µM (inactive) | > 10 µM (inactive) | > 10 µM (inactive) | > 10 µM (inactive) | 
13 | CCC1CN2CCc3c([nH]c4ccccc34)[C@@](C(=O)OC)(c3cc4c(cc3OC)N(C)C3C(O)(C(=O)OC)C(C(=O)OC)C5(CC)C=CCN6CCC43C65)C[C@@H](C2)[C@@H]1C(C)(C)C (stereo not given in full) | 0.652 µM (active) | 0.607 µM (active) | 0.396 µM | 0.417 µM (active) | 0.342 µM (active) | 0.33 µM (active) | 0.494 µM (active) | 0.328 µM (active) | 0.292 µM (active) | 0.352 µM (active) | 0.486 µM (active) | 0.649 µM (active) | 0.514 µM (active) | 0.479 µM (active) | 0.196 µM (active) | 0.348 µM (active) | 0.668 µM (active) | 
14 | C[n+]1ccc(/C2=C3\C=CC(=N3)/C(c3cc[n+](C)cc3)=c3/cc/c([nH]3)=C(\c3cc[n+](C)cc3)C3=N/C(=C(/c4cc[n+](C)cc4)C4C=CC2N4)C=C3)cc1 | > 100 µM (inactive) | > 100 µM (inactive) | > 100 µM | 3.93 µM (inactive) | > 100 µM (inactive) | > 100 µM (inactive) | > 100 µM (inactive) | 51.9 µM (inactive) | > 100 µM (inactive) | > 100 µM (inactive) | > 100 µM (inactive) | 80.2 µM (inactive) | > 48.5 µM (inactive) | 95.3 µM (inactive) | > 61.7 µM (inactive) | > 75.7 µM (inactive) | 71.4 µM (inactive) | 
15 | COC(=O)c1cc(C(=CCC[C@H]2CC[C@@]3(C)C(CCC4C3CC[C@@]3(C)C4CC[C@@H]3C(C)CCCC(C)C)C2)c2cc(Cl)c(O)c(C(=O)OC)c2)cc(Cl)c1O (stereo not given in full) | > 10 µM (inactive) | > 10 µM (inactive) | > 10 µM | > 10 µM (inactive) | > 10 µM (inactive) | > 10 µM (inactive) | > 10 µM (inactive) | > 10 µM (inactive) | > 10 µM (inactive) | > 10 µM (inactive) | > 10 µM (inactive) | > 10 µM (inactive) | > 10 µM (inactive) | > 10 µM (inactive) | > 10 µM (inactive) | > 10 µM (inactive) | > 10 µM (inactive) | 
16 | COc1ccc([C@@]23Oc4cc(OC)cc(OC)c4[C@]2(O)[C@H](O)[C@H](C(N)=O)[C@H]3c2ccccc2)cc1 [DIDESMETHYLROCAGLAMIDE] | < 0.01 µM (active) | < 0.01 µM (active) | < 0.0142 µM | < 0.01 µM (active) | < 0.01 µM (active) | < 0.01 µM (active) | < 0.01 µM (active) | < 0.01 µM (active) | < 0.01 µM (active) | < 0.01 µM (active) | < 0.01 µM (active) | < 0.01 µM (active) | < 0.0162 µM (active) | < 0.01 µM (active) | < 0.01 µM (active) | < 0.01 µM (active) | < 0.01 µM (active) | 
